Measured values published in patent publication US20110263574A1, “PIRENZEPINE AS OTOPROTECTIVE AGENT” (PROTEOSYS AG, priority 2009, published 2011).
“Also recorded” adds a separate entry of the source.

Assays:
Inner hair cells (IHC) = assay: Otoprotection in cultivated cochlea, cis-platin induced loss of inner hair cells; format: cell-based; details: cultivated cochlea of post-natal mice; cis-platin 5 μM; test compound 0.1 to 100 μM; compared to controls
Description: (§1) In cultivated cochlea, a loss of sensory or hair cells was induced by administering cis-platin (5 μM).
(§2) Intact cochlea of post-natal mice were cultivated up to 7 days (Unsworth and Lelkes, Nat. Med. 4 (1998), 901-907) in simulated microgravity.
(§3) The otic protectivity of the test compounds PSY 310 and PSY 3101 in the presence of ototoxic agents was tested. Neomycin (an aminoglycoside antibiotic) and cis-platinum (a chemotherapeutic agent) were added in three different concentrations to the cultivate organ over a time period of 48 hours.
(§4) The test compounds were added in six different amounts of 0.1 to 100 μM respectively.

[1] = test system: germ cell tumor cell line 2101 Ep; assay: Survival rate of cis-platin treated cancer cell line 2101 Ep with simultaneous test compound; format: cell-based; details: 2101 Ep cells; cis-platin 1.4 μM; 10 μM test compound simultaneously; control DMSO 0.1%
[2] = test system: germ cell tumor cell line NT2; assay: Survival rate of cis-platin treated cancer cell line NT2 with simultaneous test compound; format: cell-based; details: cis-platin 1.4 μM, 10 μM test compound simultaneously, control DMSO 0.1%
Outer hair cells (OHC) = assay: Otoprotection in cultivated cochlea, cis-platin induced loss of outer hair cells; format: cell-based; details: cultivated cochlea of post-natal mice; cis-platin 5 μM; test compound 0.1 to 100 μM; compared to controls
Description: as §1, §2, §3, §4

PARP-1 = details: induced by transient ischemia or acoustic trauma; Tabuchi et al.; cited from earlier work

Structure (SMILES) | preserved fraction of inner hair cells (hair cell protection) (Inner hair cells (IHC)) | effect on cytotoxic effect of cis-platinum (survival rate of cancer cells) [1] | effect on cytotoxic effect of cis-platinum (survival rate of cancer cells) [2] | preserved fraction of outer hair cells (hair cell protection) (Outer hair cells (OHC)) | effect on cochleal dysfunctions (PARP-1)
CN1CCN(CC(=O)N2c3ccccc3C(=O)Nc3cccnc32)CC1 [pirenzepine] | dosis dependent protection; also recorded: dose-dependent increase | does not reduce | does not reduce | dosis dependent protection; also recorded: dose-dependent increase | –
NC(=O)c1cccc(N)c1 [3-aminobenzamide] | – | – | – | – | alleviates
